Laboratory results from ChEMBL document CHEMBL2448688, “Selection and optimization of hits from a high-throughput phenotypic screen against Trypanosoma cruzi. Exported from HEOS 25-Oct-2013. See also related datasets CHEMBL3137440 and CHEMBL3137386”.
Values after ≈ are worked out from the molar mass of the structure shown. Values joined by “and” are separate entries in the source; they are usually repeats but may differ in a detail not shown here. Identical values can stand only once.

Columns and labels:
Trypanosoma cruzi [1] = test: (§1) DNDI: Chagas in Vitro; assay type: functional, organism-based, Tulahuen C4 (LacZ)
[2] = DNDI: Lipophilicity (gLogD) at pH 3; conditions: buffer, pH 3, logD
Trypanosoma cruzi [3] = test: as §1; assay type: functional, Tulahuen C4 (LacZ)
in vitro [4] = conditions: rat, microsomes
in vitro [5] = conditions: rat, microsomes; remark: listed apart in the source
[6] = DNDI: Lipophilicity (gLogD) at pH 7.4; conditions: buffer, pH 7.4, logD
in vitro [7] = conditions: human, microsomes
in vitro [8] = conditions: human, microsomes, t (1 / 2)
[9] = DNDI: Solubility in 0.01M HCl at pH 2 determined by nephelometry; conditions: 0.01M HCl, pH 2, Kinetic
in vitro [10] = conditions: mouse, microsomes
in vitro [11] = conditions: mouse, microsomes; remark: listed apart in the source
[12] = (§2) DNDI: Cytotoxicity in vitro, against rat skeletal myoblast (L-6) cells; conditions: L-6 cells (skeletal myoblasts), IC50
in vitro [13] = conditions: human, microsomes, EH
Cytochrome P450 3A4 = Cytochrome P450 3A4 (Homo sapiens, UniProt P08684); test: DNDI: Human CYP3A4 inhibition determined using 6b-hydroxylation of testosterone
[14] = tested on: Trypanosoma brucei rhodesiense; test: DNDI: HAT in Vitro; assay type: functional, organism-based, ATCC 30027
[15] = DNDI: Cytotoxicity in vitro, against human lung fibroblast (MRC-5) cells; conditions: MRC-5 cells (lung fibroblasts)
[16] = DNDI: Solubility in phosphate buffer at pH 6.5 determined by nephelometry; conditions: phosphate buffer, pH 6.5, Kinetic
L6 = test: as §2; conditions: L-6 cells (skeletal myoblasts)
Leishmania infantum = test: DNDI: Leish (macro) in Vitro; assay type: functional, organism-based, MHOM/MA(BE)/67
CYP3A4 [17] = target: T1, CYP3A4 (Homo sapiens, UniProt P08684); test: DNDI: Human CYP3A4 inhibition at 10 uM determined using 6b-hydroxylation of testosterone; conditions: probe testosterone (6b-hydroxylation)
CYP3A4 [18] = target: T1, CYP3A4; test: DNDI: Human CYP3A4 inhibition at 1 uM determined using 6b-hydroxylation of testosterone; conditions: probe testosterone (6b-hydroxylation)
in vitro [19] = conditions: rat, hepatocytes
[20] = DNDI: Metabolism; assay type: ADME, Microsome; conditions: rat, microsomes
Trypanosoma cruzi [21] = test: DNDI: Chagas in vivo at 20 mg/kg, 20 days 2x; assay type: functional, Tulahuen Swiss po
[22] = Trypanosoma cruzi, Tulahuen C4 (LacZ)
[23] = Leishmania infantum, MHOM/MA(BE)/67

Cytochrome P450 3A4, sequence (P08684 whole entry): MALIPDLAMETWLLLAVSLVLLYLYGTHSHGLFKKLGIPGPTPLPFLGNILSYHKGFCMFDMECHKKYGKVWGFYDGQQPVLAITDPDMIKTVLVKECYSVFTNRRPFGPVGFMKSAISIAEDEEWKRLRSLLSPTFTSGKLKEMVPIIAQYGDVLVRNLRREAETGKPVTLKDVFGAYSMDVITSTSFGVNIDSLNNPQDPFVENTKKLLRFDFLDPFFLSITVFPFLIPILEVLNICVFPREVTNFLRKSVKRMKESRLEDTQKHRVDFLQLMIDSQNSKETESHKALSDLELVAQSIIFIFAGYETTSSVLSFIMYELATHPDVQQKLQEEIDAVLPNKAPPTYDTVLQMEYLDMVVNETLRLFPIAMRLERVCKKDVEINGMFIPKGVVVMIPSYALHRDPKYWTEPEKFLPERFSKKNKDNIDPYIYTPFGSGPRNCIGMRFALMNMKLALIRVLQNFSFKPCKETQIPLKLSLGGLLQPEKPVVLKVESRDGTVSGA
T1 sequence (P08684 whole entry): as above

| Structure (SMILES) | IC50 (Trypanosoma cruzi [1]) | IC50 (Trypanosoma cruzi [1]; [22]) | chromatographic logD [2] | IC90 (Trypanosoma cruzi [3]) | IC90 (Trypanosoma cruzi [3]; [22]) | chromatographic logD [6] | microsomal CLint (in vitro [7]) | half-life (in vitro [8]) | solubility kinetic [9] | IC50 [12] | hepatic extraction ratio (in vitro [13]) | IC50 (Cytochrome P450 3A4) | IC50 [15] | solubility kinetic [16] | inhibition at 10 µM (CYP3A4 [17]) | inhibition at 1 µM (CYP3A4 [18]) | further results |
| --- | --- | --- | --- | --- | --- | --- | --- | --- | --- | --- | --- | --- | --- | --- | --- | --- | --- |
| CO/N=C(\C)c1ccc(-n2ccnc2)c(NC(=O)c2ccc(-c3ccccc3)nc2)c1 | 0.009 µM | 0.013 µM | 2.5 | 0.0245 µM | 0.0291 µM | 3.3 | 26 µL/min/mg | 66 min | > 100 µg/mL | > 100 µM | – | – | – | – | – | – | half-life (in vitro [4]): 36 min; microsomal CLint (in vitro [5]): 48 µL/min/mg; half-life (in vitro [10]): 53 min; microsomal CLint (in vitro [11]): 33 µL/min/mg |
| CC(C)N(C)CC(O)COc1ccc2cc(Br)ccc2c1 (stereo not drawn) | 6.4 µM and 5.43 µM and 5.75 µM and 5.78 µM and 6.57 µM | > 10 µM | 2.6 | 8.95 µM and 8.79 µM and > 10 µM | 8.78 µM | 3.6 | < 7 µL/min/mg | > 250 min | > 100 µg/mL | 19.2 µM | < 0.23 | > 20 µM | > 64 µM | > 100 µg/mL | – | – | IC50 [14]: 0.507 µM and 1.55 µM; IC50 (L6): 34.8 µM; IC50 (Leishmania infantum): 6.73 µM and 2.38 µM |
| CCN(c1ccccc1)S(=O)(=O)c1ccc(Cl)c(NC(=O)c2ccc3c(c2)CCNC3)c1 | – | > 1 µM | – | – | > 1 µM | – | 334 µL/min/mg | 5.2 min | 95.9 µg/mL (≈ 204 µM) | 19.9 µM | 0.943 | 5.83 µM | 29.4 µM | 14.5 µg/mL (≈ 30.8 µM) | – | – | IC50 ([14]; Trypanosoma brucei, ATCC 30027): 0.604 µM; IC50 (Leishmania infantum): 2.16 µM and 8 µM |
| O=C(Nc1ccccc1-n1ccnc1)c1cnc(-c2ccccc2)nc1 | – | 0.063 µM | 1.3 | – | 0.148 µM | 2.4 | 18 µL/min/mg | 99 min | > 100 µg/mL | > 100 µM | 0.4 | > 10 µM | – | – | 27% | – | – |
| Cc1ccc(-n2ccnc2)c(NC(=O)c2cnc(-c3ccccc3)nc2)c1 | – | 0.023 µM | 1.6 | – | 0.151 µM | 2.7 | 93 µL/min/mg | 19 min | > 100 µg/mL | > 100 µM | 0.78 | > 10 µM | – | – | 49% | 15% | – |
| CO/N=C(\C)c1ccc(-n2ccnc2)c(NC(=O)c2cncc(-c3ccccc3)n2)c1 | 0.0053 µM | 0.0062 µM | 2.8 | 0.639 µM | 0.769 µM | 3.7 | 117 µL/min/mg | 15 min | > 50 µg/mL | 4.16 µM | 0.82 | < 1 µM | – | 3.1 µg/mL (≈ 7.52 µM) | 91.9% | 75.9% | IC50 (L6): 6.36 µM |
| O=C(Nc1cc(C(F)(F)F)ccc1-n1ccnc1)c1cnc(-c2ccccc2)nc1 | – | > 0.1 µM | – | – | > 0.1 µM | – | – | – | – | > 100 µM | – | – | > 64 µM | – | – | – | IC50 ([14]; Trypanosoma brucei, ATCC 30027): > 10 µM; IC50 (Leishmania infantum; [23]): > 64 µM |
| CN(CC(O)COc1ccc2cc(Br)ccc2c1)C1CCCCC1 (stereo not drawn) | 4.64 µM | 4.55 µM | 2.6 | 7.84 µM | 8.48 µM | 3.6 | 13 µL/min/mg | 132 min | > 100 µg/mL | 16.6 µM | 0.34 | > 10 µM | > 64 µM | > 100 µg/mL | 11% | 5% | IC50 (L6): 17 µM; IC50 (Leishmania infantum): 1.68 µM and 2 µM; IC50 (Leishmania infantum; [23]): 1.26 µM |
| CO/N=C(\C)c1ccc(-n2ccnc2)c(NC(=O)c2cnc(-c3ccccn3)s2)c1 | 0.0055 µM | 0.00293 µM | 1.8 | 0.017 µM | 0.0194 µM | 2.7 | 20 µL/min/mg | 85 min | > 100 µg/mL | 68 µM | – | – | – | 6.3 µg/mL (≈ 15.1 µM) | – | – | half-life (in vitro [10]): 23 min; IC50 ([14]; Trypanosoma brucei, ATCC 30027): > 10 µM; microsomal CLint (in vitro [11]): 75 µL/min/mg; IC50 (L6): > 100 µM |
| CO/N=C(\C)c1ccc(-n2ccnc2)c(NC(=O)c2ccc(-c3ccccc3)cc2)c1 | – | 0.0204 µM | 3.1 | – | 0.065 µM | 3.9 | 30 µL/min/mg | 58 min | > 100 µg/mL | > 100 µM | – | – | – | < 1.6 µg/mL | – | – | CLhep predicted (in vitro [19]): 24.5 mL/min/kg; CLblood [20]: 35 mL/min/kg; half-life (in vitro [4]): 40 min; microsomal CLint (in vitro [5]): 43 µL/min/mg; half-life (in vitro [10]): 56 min; microsomal CLint (in vitro [11]): 31 µL/min/mg |
| CS(=O)(=O)N(Cc1c[nH]cn1)c1ccc(-c2ccc(F)cc2)cc1F | 0.0026 µM | 0.0022 µM | 1.6 | 0.0091 µM | 0.0084 µM | 2.3 | 28 µL/min/mg | 61 min | > 100 µg/mL | > 100 µM | 0.52 | < 1 µM | – | – | 86.1% | 51.6% | – |
| CS(=O)(=O)N(Cc1cnc[nH]1)c1ccc(-c2nc3ccccc3s2)cc1 | – | – | 1.6 | – | – | 2.3 | 55 µL/min/mg | 32 min | > 100 µg/mL | – | 0.68 | 1.5 µM | – | – | 85% | 48% | PCR cure rate (Trypanosoma cruzi [21]): 0%; Parasitemia clearance after immunosuppression (Trypanosoma cruzi [21]): 0%; Parasitemia clearance after treatment (Trypanosoma cruzi [21]): 100% |
| CCN(c1ccccc1)S(=O)(=O)c1ccc(NC(=O)CN(C)C2CCN(C)CC2)c(Cl)c1.Cl | – | – | 2.9 | – | – | 4.4 | 169 µL/min/mg | 10 min | > 100 µg/mL | – | – | – | 40.6 µM | > 100 µg/mL | – | – | IC50 ([14]; Trypanosoma brucei, ATCC 30027): 1.42 µM; IC50 (Leishmania infantum): 11.3 µM and 24.1 µM |
| CCN(Cc1c[nH]cn1)c1ccc(-c2nc3ccccc3s2)cc1 | – | 0.0153 µM | 2.1 | – | 0.156 µM | 3.4 | < 7 µL/min/mg | > 250 min | > 100 µg/mL | 36 µM | < 0.23 | 4 µM | – | 3.1 µg/mL (≈ 9.27 µM) | 80% | 37% | PCR cure rate (Trypanosoma cruzi [21]): 0%; Parasitemia clearance after immunosuppression (Trypanosoma cruzi [21]): 0%; Parasitemia clearance after treatment (Trypanosoma cruzi [21]): 80% |
